In patent US20210023065A1, “AMPHIPHILIC THIOL COMPOUNDS AND USES THEREOF” (THE REGENTS OF THE UNIVERSITY OF CALIFORNIA, priority 2018, published 2021):

Tests used:
Format in all cases: cell-based
endogenous HRas = target: T1, endogenous HRas (Homo sapiens, UniProt P01112); assay: Acyl resin-assisted capture detection of HRas palmitoylation in HeLa cells; details: for depalmitoylation of HRas: HeLa cells, 20 min, 1 at 1.25 μmol/10^7 cells, same experiments with TCEP alone or compound 2
T1 construct: endogenous in cells; host or cells: HeLa
Description: HeLa cells were grown to confluency in 10 cm plates. Stock solutions of compounds were prepared in DMSO as before and diluted to the final indicated concentration in 5.5 mL of OptiMEM media before adding to cells. Cells were incubated at 37° C. for 20 min and then media removed and 3 mL of HBSS added to each plate. Cells were detached using a cell scraper, pelleted by centrifugation at 1,000 rcf for 5 min and the pellet processed using a CAPTUREome S-Palmitoylated Protein Kit (Badrilla, UK) according to the manufacturer's protocol. Samples were resolved by electrophoresis using 4-20% SDS-polyacrylamide gels (Bio-Rad) under denaturing and reducing conditions. Proteins were then electrotransferred to a PVDF membrane (Bio-Rad). The membrane was blocked with 3% BSA and then subjected to immunoblot analysis using Anti-GTPase HRAS antibody (ab97488) (Abcam), Calnexin Antibody (2433S) (Cell Signaling Technology), Gα(i) Antibody (5290S) (Cell Signaling Technology), SNAP25 Antibody (5308S) (Cell Signaling Technology), Flotillin-2 Antibody (3436S) (Cell Signaling Technology), CD44 Antibody (3570S) (Cell Signaling Technology), Lyric/Metadherin Antibody (14065S) (Cell Signaling Technology), Flotillin-1 Antibody (3253S) (Cell Signaling Technology) and secondary goat anti-rabbit IgG-HRP (sc-2030) (Santa Cruz Biotechnology) or goat anti-mouse IgG HRP (ThermoFisher). Chemiluminescent detection was performed by using SuperSignal West Pico PLUS chemiluminescent substrate (ThermoFisher) according to the manufacturer's instructions.
(§1) Assays were performed in 3 biological replicates. Each replicate involved the analysis of 4 to 5 conditions side-by-side. Western blots were analyzed using ImageJ^1. The intensity of the protein band in each cleaved bound fraction (palmitoylated protein fraction) was normalized to the intensity of the corresponding input fraction (total protein fraction). The values within individual S 4 replicates were normalized to the control or vehicle condition and reported as means±SD. An unpaired t test was performed to determine the significance between means.

GAP43 = target: T2, GAP43 (Homo sapiens, UniProt P17677); assay: Acyl resin-assisted capture detection of GAP43 palmitoylation in INCL lymphoblasts; details: 0.05 μmol/10^7 cells, 24 h
T2 construct: Western blot detection of endogenous GAP43 in acyl resin-assisted capture fractions; host or cells: INCL human lymphoblasts
T2 sequence (P17677 1-238): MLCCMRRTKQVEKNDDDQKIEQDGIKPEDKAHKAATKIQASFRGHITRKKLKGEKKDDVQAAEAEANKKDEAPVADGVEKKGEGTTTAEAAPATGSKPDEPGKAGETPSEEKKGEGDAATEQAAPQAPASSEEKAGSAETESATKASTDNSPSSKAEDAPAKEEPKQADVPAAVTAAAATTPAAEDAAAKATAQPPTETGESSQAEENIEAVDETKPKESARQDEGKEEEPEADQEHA
Description: INCL Lymphoblasts were adjusted to 1,000,000 cells/mL in 20 mL of OptiMem Media. Stock solutions of compounds were prepared in DMSO as before and diluted to the indicated final concentration in the cell suspension. […] Cells were pelleted by centrifugation at 1,000 rcf for 5 min and the pellet processed using a CAPTUREome S-Palmitoylated Protein Kit (Badrilla, UK) according to the manufacturer's protocol. Samples were resolved by electrophoresis using 4-20% SDS-polyacrylamide gels (Bio-Rad) under denaturing and reducing conditions. Proteins were then electrotransferred to a PVDF membrane (Bio-Rad). The membrane was blocked with 3% BSA and then subjected to immunoblot analysis using GAP-43 (B-5) Antibody (sc-17790) (Santa Cruz Biotechnology) and secondary antibody goat anti-mouse IgG HRP (ThermoFisher). Chemiluminescent detection was performed by using SuperSignal West Pico PLUS chemiluminescent substrate (ThermoFisher) according to the manufacturer's instructions.
as §1

EGFP-HRas = target: T3, EGFP-HRas (Homo sapiens, UniProt P01112); assay: Live-cell imaging of EGFP-HRas localization in HeLa cells; details: HeLa cells, 1.25 μmol/10^7 cells, 20 min
T3 construct: host or cells: HeLa
Description: Imaging was performed on an Axio Observer Z1 inverted microscope (Carl Zeiss Microscopy Gmb, Germany) with Yokogawa CSU-X1 spinning disk confocal unit using a 63×, 1.4 NA oil immersion or 20×, 0.8 NA objective to an ORCA-Flash4.0 V2 Digital CMOS camera (Hamamatsu, Japan). For live cell imaging, an incubation chamber with temperature and CO2 controllers (World Precision Instruments) was utilized. Fluorophores were excited with s diode laser (488 nm; 30 mW). Images were acquired using Zen Blue software (Carl Zeiss) and processed using Image J.^1
HeLa cells were plated at 40,000 cells/well in an 8-well Lab-Tek chamber slide (ThermoFisher) and allowed to adhere overnight. Cells were transfected with mEGFP-HRas or mEGFP-KRas4b using Lipofectamine 2000 (ThermoFisher) according to the manufacturer's protocol. 50 mM stocks of compounds 1 and 2 were prepared by dissolving the solid compound in DMSO containing 100 mM tris(2-S 3 carboxyethyl)phosphine hydrochloride (TCEP) as a preservative. From these stocks, a solution of 200 μM [1 or 2] (with 400 μM TCEP), or 400 μM TCEP was prepared in OptiMEM media. Before imaging, cells were exchanged into OptiMEM media. The diluted solutions were added to the indicated final concentration within individual wells of the chamber slide and cells imaged while maintaining 37° C., 5% CO2 in the incubation chamber. Images were acquired in 6 different locations across a minimum of 2 independent experiments. […] An unpaired t test was performed to determine the significance of the means before and after treatment.

T1 sequence (P01112 whole entry): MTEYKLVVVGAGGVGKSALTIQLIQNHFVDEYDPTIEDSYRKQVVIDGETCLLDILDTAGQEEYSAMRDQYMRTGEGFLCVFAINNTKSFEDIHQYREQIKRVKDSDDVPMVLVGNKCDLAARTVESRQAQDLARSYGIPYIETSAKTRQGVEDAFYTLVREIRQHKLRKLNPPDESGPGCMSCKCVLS
T3 sequence (P01112 1-186 limits assumed): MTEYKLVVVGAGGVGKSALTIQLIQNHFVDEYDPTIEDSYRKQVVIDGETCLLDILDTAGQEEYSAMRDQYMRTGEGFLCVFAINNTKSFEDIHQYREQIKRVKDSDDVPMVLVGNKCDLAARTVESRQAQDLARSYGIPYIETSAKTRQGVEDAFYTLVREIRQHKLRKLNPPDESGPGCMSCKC

depalmitoylation of HRas by PB alone (endogenous HRas; HeLa cells treated with PB, without 1)	Structure (SMILES)	level of GAP43 palmitoylation (GAP43)	EGFP-HRas localization at the plasma membrane (fluorescence) (EGFP-HRas)	depalmitoylation of HRas (endogenous HRas)
no significant depalmitoylation	CCCCCCCCCC[C@@H]1C(=O)O[C@H]1CCc1ccc(OC)c(OC)c1 [PB, palmostatin B, reference compound]	–	–	–
–	Cl.O=C(O)CCP(CCC(=O)O)CCC(=O)O [TCEP, tris(2-carboxyethyl)phosphine hydrochloride, reference compound]	did not result in a significant change	no change in fluorescence localization	no significant depalmitoylation
–	CCCCCCCCNC(=O)[C@@H](N)CO [compound 2, H2N-L-Ser-Oct, reference compound]	did not result in a significant change	no change in fluorescence localization	no significant depalmitoylation
